Literature values, collected in patent publication US8536169B2, “Compounds” (Glaxo Group Limited, priority 2008, dated 2013).

Columns and labels:
neutrophils [1] = tested on: neutrophils
neutrophils [2] = tested on: neutrophils; remark: listed apart in the source
Class I PI3-kinases = conditions: read-out: IC50 against each of the various Class I PI3-kinases
neutrophils [3] = conditions: treatment of neutrophils; Thelen et al. 1994

Row | Molecule | inhibitory activity on phospholipases (phospholipases) | neutrophil migration (neutrophils [1]) | superoxide release (neutrophils [2]) | IC50 (Class I PI3-kinases) | fMLP-induced respiratory burst response (neutrophils [3])
1 | O=c1cc(N2CCOCC2)oc2c(-c3ccccc3)cccc12 [LY294002] | some inhibitory activity | block | block | – | –
2 | wortmannin | – | block | block | 1 to 10 nM | prevents
